Assay results reported in patent publication JP2016199536A, “筋肉増強およびメタボリックシンドローム改善ならびにqol改善のための組成物” (NUTRITION ACT CO Ltd, priority 2015, dated 2016).

Key:
[1] = tested on: myoblasts (筋芽細胞); assay: Myoblast differentiation promotion test, count of beating myotubes (Example 3); type: cell-based; details: 1 μM, 10 days after cell seeding, cells from ICR mouse fetal thigh muscle
[2] = Body fat reduction in high-fat-diet mice, epididymal fat weight (Example 4); type: in vivo, mouse; details: 10 weeks, C57BL/6J male mice, 6-compartment cage, high-fat diet with oleanolic acid or oleuropein 50 mg/kg diet, or Oleavita 1000 mg/kg diet
[3] = Plasma insulin concentration in high-fat-diet mice (Example 5); type: in vivo, mouse; details: 10 weeks, C57BL/6J male mice, 6-compartment cage, high-fat diet with oleanolic acid or oleuropein 50 mg/kg diet, or Oleavita 1000 mg/kg diet
[4] = Plasma leptin concentration in high-fat-diet mice (Example 5); type: in vivo, mouse; details: 10 weeks, C57BL/6J male mice, 6-compartment cage, high-fat diet with oleanolic acid or oleuropein 50 mg/kg diet, or Oleavita 1000 mg/kg diet

CC1(C)CC[C@]2(C(=O)O)CC[C@]3(C)C(=CC[C@@H]4[C@@]5(C)CC[C@H](O)C(C)(C)[C@@H]5CC[C@]43C)[C@@H]2C1 [オレアノール酸]
beating myotube cells compared with control [1]: わずかに増加 | fat-reducing effect compared with high-fat diet group (HF) [2]: 脂肪減少効果が見られなかった | suppression of plasma insulin concentration [3]: 抑制効果がなかった | plasma leptin concentration [4]: 高値

C/C=C1/[C@H](O[C@@H]2O[C@H](CO)[C@@H](O)[C@H](O)[C@H]2O)OC=C(C(=O)OC)[C@H]1CC(=O)OCCc1ccc(O)c(O)c1 [オレウロペイン]
beating myotube cells compared with control [1]: わずかに増加 | fat-reducing effect compared with high-fat diet group (HF) [2]: 脂肪減少効果が見られなかった | suppression of plasma insulin concentration [3]: 抑制効果がなかった | plasma leptin concentration [4]: 高値
